The results in this text go back to patent US6908930B2, “4-substituted 7-AZA-indolin-2-ones and their use as protein kinase inhibitors” (Sugen, Inc., priority 1999, dated 2005).

One test has as its target T1, PDGFR (Homo sapiens, UniProt P09619).
T1 construct: expressed in transfected cells; host or cells: NIH3T3
Description: Assay for modulation of PDGFR activity (ELISA). The format is biochemical. The note with it: read-out: bio PDGFR IC50. As to the method:
Using the following reagents, supplies, and methods, the ability of the compounds of the invention to modulate the in vitro activity of the PDGFR can be readily determined in an enzyme-linked immunosorbent assay (ELISA).
Monoclonal anti-PDGFR antibody (28D4C10) is stored at −20° C. in 50 mL tubes prior to use.
Lysates from PDGFR-β expressing NIH3T3 cells are obtained and stored at −80° C. in 1 mL aliquots. PDGFR-β expression in eukaryotic cells is well known in the art. Lysates are prepared by the following method. Place carrier dishes in ice trays, and after cooling, remove the media and replace with ice cold PBS. Remove the PBS and repeat. […] Take up lysate with a pipettor and add to a 30 mL centrifuge tube on ice. Vortex the tubes for 30-60 seconds and then centrifuge for 10 minutes at 7000 rpm in a J-20 rotor which has been precooled to below 0° C. Recover the supernatants and combine them in a 250 mL tube and place on ice. Perform protein determination to measure the total quantity of protein per mL of solution. Aliquot the lysate into 1 mL fractions and store at −80° C.
Coat Corning 96 well ELISA plates with 0.5 μg per well 28D4C10 antibody in a volume of 100 μl PBS overnight, at 4° C. and remove unbound antibody, 28D4C10, from wells by inverting plate to remove liquid. Wash 1× with distilled H2O by filling wells. Pat the plate on a paper towel to remove excess liquid.
Add 150 μL of Blocking Buffer to each well. Incubate for 30 minutes at room temperature, with shaking and wash plate 3× with deionized water, then once with TBST. Pat plate on a paper towel to remove excess liquid and bubbles
Dilute lysate in PBS (10 mg lysate/100 μL PBS). Add 100 μL of diluted lysate to each well. Shake at room temperature for 60 min. Wash plate 3× with deionized water, then once with TBST. Pat plate on a paper towel to remove excess liquid and bubbles.
Add 80 μL Kinase Buffer to ELISA plate containing captured PDGFR.
Dilute drugs/extracts 1:10 (unless specified otherwise) in TBS+10% DMSO in 96-well polypropylene plates. (i.e., 10 μL compound+90 μL (TBS+10% DMSO)). Add 10 μL diluted drugs/extracts to ELISA plate. […] Incubate for 30 minutes while shaking at room temperature.
After 30 minutes stop reaction with addition of 10 μL of 200 mM EDTA pH 8.0 for 20 mM final in well. Wash 4× with deionized water, twice with TBST.
Incubate 30-45 minutes at room temperature, with shaking. Wash plate 3× with deionized water, then once with TBST. Pat plate on a paper towel to remove excess liquid and bubbles.
Incubate 30 minutes at room temperature with shaking. Wash plate 3× with deionized water, then once with TBST. Pat plate on a paper towel to remove excess liquid and bubbles.
Add 100 μL of ABTS/H2O2 solution to each well. Incubate 10 to 30 minutes while shaking. Remove any bubbles. If necessary stop reaction with the addition of 100 μL of 0.2M HCl per well
Read assay on Dynatech MR7000 ELISA reader.
Background: ELISA stands for enzyme-linked immunosorbent assay.

In a further test the target is T2, EGFR (Homo sapiens, UniProt P00533).
T2 construct: A431 […] cell lysate is stored at −80° C; host or cells: A431 cell lysate
T2 sequence (P00533 25-1210): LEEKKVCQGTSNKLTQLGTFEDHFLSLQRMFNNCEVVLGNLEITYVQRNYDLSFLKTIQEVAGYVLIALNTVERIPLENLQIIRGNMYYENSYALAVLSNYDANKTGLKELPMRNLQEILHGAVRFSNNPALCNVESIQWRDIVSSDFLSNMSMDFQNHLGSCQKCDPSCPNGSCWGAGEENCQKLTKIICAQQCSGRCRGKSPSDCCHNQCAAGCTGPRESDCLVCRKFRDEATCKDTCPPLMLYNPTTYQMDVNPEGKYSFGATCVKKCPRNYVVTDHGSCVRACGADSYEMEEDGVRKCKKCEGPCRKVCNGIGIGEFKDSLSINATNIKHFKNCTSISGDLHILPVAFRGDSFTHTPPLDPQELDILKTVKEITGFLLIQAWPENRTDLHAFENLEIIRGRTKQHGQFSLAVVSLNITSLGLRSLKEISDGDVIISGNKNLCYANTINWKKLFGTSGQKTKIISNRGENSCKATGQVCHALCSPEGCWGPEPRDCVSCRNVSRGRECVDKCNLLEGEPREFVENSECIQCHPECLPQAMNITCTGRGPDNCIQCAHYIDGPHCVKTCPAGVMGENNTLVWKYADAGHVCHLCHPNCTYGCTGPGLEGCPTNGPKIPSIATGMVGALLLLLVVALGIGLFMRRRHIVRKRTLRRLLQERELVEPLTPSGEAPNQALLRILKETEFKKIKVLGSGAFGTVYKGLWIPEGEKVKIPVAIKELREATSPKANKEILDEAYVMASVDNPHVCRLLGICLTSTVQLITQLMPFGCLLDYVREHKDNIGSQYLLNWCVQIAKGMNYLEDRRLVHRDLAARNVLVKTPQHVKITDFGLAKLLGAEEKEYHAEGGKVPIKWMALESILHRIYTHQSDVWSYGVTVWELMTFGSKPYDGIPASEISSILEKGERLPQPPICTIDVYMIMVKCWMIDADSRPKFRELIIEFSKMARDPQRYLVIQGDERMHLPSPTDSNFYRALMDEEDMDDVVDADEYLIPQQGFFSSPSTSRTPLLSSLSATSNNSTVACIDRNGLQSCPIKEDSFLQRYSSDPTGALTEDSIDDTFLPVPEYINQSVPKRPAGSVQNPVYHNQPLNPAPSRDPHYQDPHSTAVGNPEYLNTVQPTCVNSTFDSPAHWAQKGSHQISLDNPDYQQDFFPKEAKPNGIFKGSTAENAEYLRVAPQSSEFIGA
Briefly: Assay for modulation of EGFR activity (ELISA). The note with it: read-out: bio EGFR IC50. The format is biochemical.

T1 sequence (P09619 33-1106, species assumed): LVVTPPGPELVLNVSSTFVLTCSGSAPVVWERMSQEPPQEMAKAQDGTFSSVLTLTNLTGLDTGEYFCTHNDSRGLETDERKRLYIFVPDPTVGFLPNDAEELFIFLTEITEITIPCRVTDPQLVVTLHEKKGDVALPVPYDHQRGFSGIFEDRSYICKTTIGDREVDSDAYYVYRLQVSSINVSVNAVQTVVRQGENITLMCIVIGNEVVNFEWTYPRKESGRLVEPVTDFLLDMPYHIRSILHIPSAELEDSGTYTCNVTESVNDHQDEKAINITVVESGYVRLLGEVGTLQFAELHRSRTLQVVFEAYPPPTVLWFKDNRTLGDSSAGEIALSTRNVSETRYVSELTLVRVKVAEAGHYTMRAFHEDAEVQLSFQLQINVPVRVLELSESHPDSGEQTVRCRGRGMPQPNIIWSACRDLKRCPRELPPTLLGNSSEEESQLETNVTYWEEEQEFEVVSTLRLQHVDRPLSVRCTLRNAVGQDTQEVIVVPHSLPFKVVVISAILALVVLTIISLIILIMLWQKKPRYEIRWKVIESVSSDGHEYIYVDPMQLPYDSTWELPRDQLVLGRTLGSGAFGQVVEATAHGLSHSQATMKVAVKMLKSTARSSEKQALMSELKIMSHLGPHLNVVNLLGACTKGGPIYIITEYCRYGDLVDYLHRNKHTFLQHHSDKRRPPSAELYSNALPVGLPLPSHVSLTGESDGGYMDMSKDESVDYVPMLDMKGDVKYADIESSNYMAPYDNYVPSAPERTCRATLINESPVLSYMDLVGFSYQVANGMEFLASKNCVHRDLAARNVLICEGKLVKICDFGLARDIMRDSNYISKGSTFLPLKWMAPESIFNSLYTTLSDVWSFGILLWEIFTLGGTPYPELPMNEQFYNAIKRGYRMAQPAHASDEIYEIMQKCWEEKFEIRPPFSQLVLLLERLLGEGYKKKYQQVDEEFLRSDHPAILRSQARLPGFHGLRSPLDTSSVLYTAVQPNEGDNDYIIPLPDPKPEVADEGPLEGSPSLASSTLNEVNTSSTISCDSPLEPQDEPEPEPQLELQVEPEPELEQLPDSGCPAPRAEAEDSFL

`CC(C)c1cc(CCC(=O)O)c(/C=C2\C(=O)Nc3ncnc(Nc4ccc(F)c(Cl)c4)c32)[nH]1` [Formula 27]: the IC50 (as a rule, the midpoint of a concentration-inhibition curve) on PDGFR was greater than 20 µM; at EGFR, 0.15 µM.
Turning to `Cc1c(C(=O)N2CCOCC2)c[nH]c1/C=C1\C(=O)Nc2ncnc(Nc3ccc(F)c(Cl)c3)c21` [Formula 31], the figures for the IC50 on PDGFR and at EGFR were greater than 20 µM and 0.21 µM, respectively.
In the same order, the values of `Cc1cc(C(=O)N2CCOCC2)[nH]c1/C=C1\C(=O)N(C)c2ncnc(Nc3ccc(F)c(Cl)c3)c21` [Formula 34] are greater than 20 µM and greater than 20 µM.
Take `Cc1cc(C(=O)N2CCN(C)CC2)[nH]c1/C=C1\C(=O)N(C)c2ncnc(Nc3ccc(F)c(Cl)c3)c21` [Formula 36]: the IC50 was greater than 20 µM on PDGFR and 17.4 µM at EGFR.
With `Cc1cc(C=C2C(=O)Nc3ncnc(Nc4ccc(F)c(Cl)c4)c32)[nH]c1C(=O)N1CCOCC1` [Formula 37], the IC50 at PDGFR was greater than 20 µM; on EGFR, 0.24 µM.
